# US10287301B2 (Achillion Pharmaceuticals, Inc., priority 2015, dated 2019)
# Molecular target: Human Factor D (Homo sapiens (Human), UniProt P00746)
# Assay: Human Factor D Assay
# Assay type: biochemical
# Conditions: not given
# Outline: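 IC50 values derive from nonlinear regression of Factor D reaction rates against compound concentration. The enzyme, purified from human serum, is used at 80 nM final with a 5 min room-temperature compound preincubation in 50 mM Tris, 1M NaCl, pH 7.5, before 100 μM Z-L-Lys-SBzl plus 100 μM DTNB are added.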
# Chain of Human Factor D (P00746 26-253): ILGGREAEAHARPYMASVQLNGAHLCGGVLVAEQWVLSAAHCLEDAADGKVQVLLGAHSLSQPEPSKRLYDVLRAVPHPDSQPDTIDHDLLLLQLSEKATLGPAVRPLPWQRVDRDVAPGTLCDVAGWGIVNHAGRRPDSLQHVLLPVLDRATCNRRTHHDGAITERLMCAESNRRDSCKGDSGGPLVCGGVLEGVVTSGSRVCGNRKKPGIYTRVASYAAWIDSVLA
row,Structure (SMILES),IC50
1,"CC(=O)c1cn(CC(=O)N2C[C@H](F)C[C@H]2C(=O)NC2CCCN(c3cc(C)ccc3F)C2=O)c2ccc(-c3ccnnc3)cc12 (stereo partly drawn) [Compound 125, (2S,4R)-1-(2-(3-acetyl-5-(pyridazin-4-yl)-1H-indol-1-yl)acetyl)-4-fluoro-N-(1-(2-fluoro-5-methylphenyl)-2-oxopiperidin-3-yl)pyrrolidine-2-carboxamide]",1000 to 10000 nM

# Same assay, conditions: Human Factor D 80 nM, substrate Z-L-Lys-SBzl; read-out: IC50
row,Structure (SMILES),IC50
1,"NC(=O)c1nn(CC(=O)N2C[C@H](F)C[C@H]2C(=O)Nc2cccc(Cl)c2C(F)(F)F)c2ccc(-c3ccnnc3)cc12 [Compound 93, 1-(2-((2S,4R)-2-(3-chloro-2-(trifluoromethyl)phenylcarbamoyl)-4-fluoropyrrolidin-1-yl)-2-oxoethyl)-5-(pyridazin-4-yl)-1H-indazole-3-carboxamide]",> 10000 nM
2,"CC(=O)c1cn(CC(=O)N2C[C@H](F)C[C@H]2C(=O)Nc2ccc(F)c(-c3nnc4n3CCCCC4)c2)c2ccc(-c3ccnnc3)cc12 [Compound 92, (2S,4R)-1-(2-(3-acetyl-5-(pyridazin-4-yl)-1H-indol-1-yl)acetyl)-4-fluoro-N-(4-fluoro-3-(6,7,8,9-tetrahydro-5H-[1,2,4]triazolo[4,3-a]azepin-3-yl)phenyl) pyrrolidine-2-carboxamide]",< 1000 nM
3,"NC(=O)c1nn(CC(=O)N2C[C@H](F)C[C@H]2C(=O)N[C@H]2CCCC[C@@H]2O)c2ccc(-c3ccnnc3)cc12 [Compound 172, 1-(2-((2S,4R)-4-fluoro-2-((1S,2S)-2-hydroxycyclohexylcarbamoyl)pyrrolidin-1-yl)-2-oxoethyl)-5-(pyridazin-4-yl)-1H-indazole-3-carboxamide]",> 10000 nM
4,"NC(=O)c1nn(CC(=O)N2C[C@H](F)C[C@H]2C(=O)Nc2cc(O)ccn2)c2ccc(-c3ccnnc3)cc12 [Compound 154, 1-(2-((2S,4R)-4-fluoro-2-(4-hydroxypyridin-2-ylcarbamoyl)pyrrolidin-1-yl)-2-oxoethyl)-5-(pyridazin-4-yl)-1H-indazole-3-carboxamide]",> 10000 nM
5,"NC(=O)c1nn(CC(=O)N2C[C@H](F)C[C@H]2C(=O)Nc2ccccc2-c2nc3ccccc3s2)c2ccc(-c3ccnnc3)cc12 [Compound 41, 1-(2-((2S,4R)-2-(2-(benzo[d]thiazol-2-yl)phenylcarbamoyl)-4-fluoropyrrolidin-1-yl)-2-oxoethyl)-5-(pyridazin-4-yl)-1H-indazole-3-carboxamide]",> 10000 nM
6,"CC(=O)c1cn(CC(=O)N2C[C@H](F)C[C@H]2C(=O)Nc2cccc(-c3ccccc3Cl)c2F)c2ccc(N3CCN(C(C)=O)CC3)cc12 [Compound 16, (2S,4R)-1-(2-(3-acetyl-5-(4-acetylpiperazin-1-yl)-1H-indol-1-yl)acetyl)-N-(2′-chloro-2-fluorobiphenyl-3-yl)-4-fluoropyrrolidine-2-carboxamide]",< 1000 nM
7,"CC(=O)c1cn(CC(=O)N2C[C@H](F)C[C@H]2C(=O)Nc2c[nH]nc2-c2ccc(Cl)cc2Cl)c2ccc(-c3ccnnc3)cc12 [Compound 156, (2S,4R)-1-(2-(3-acetyl-5-(pyridazin-4-yl)-1H-indol-1-yl)acetyl)-N-(3-(2,4-dichlorophenyl)-1H-pyrazol-4-yl)-4-fluoropyrrolidine-2-carboxamide]",> 10000 nM
8,"NC(=O)c1nn(CC(=O)N2C[C@H](F)C[C@H]2C(=O)Nc2nc(-c3ccc4c(c3)CCCC4)cs2)c2ccc(-c3ccnnc3)cc12 [Compound 55, 1-(2-((2S,4R)-4-fluoro-2-(4-(5,6,7,8-tetrahydro-naphthalen-2-yl)thiazol-2-ylcarbamoyl)pyrrolidin-1-yl)-2-oxoethyl)-5-(pyridazin-4-yl)-1H-indazole-3-carboxamide]",> 10000 nM

# Same assay, conditions: Human Factor D assay of Example 8; Table 2; read-out: IC50
row,Structure (SMILES),IC50
1,"CC(=O)c1nn(CC(=O)N2C[C@H](F)C[C@H]2C(=O)Nc2cccc(Br)n2)c2ccc(-c3cnc4n3CCCC4)cc12 [Compound 309, (2S,4R)-1-(2-(3-acetyl-5-(5,6,7,8-tetrahydroimidazo [1,2-a]pyridin-3-yl)-1H-indazol-1-yl)acetyl)-N-(6-bromopyridin-2-yl)-4-fluoropyrrolidine-2-carboxamide]",< 1000 nM
2,"NC(=O)c1nn(CC(=O)N2C[C@H](F)C[C@H]2C(=O)Nc2cccc(Br)n2)c2ccc(-c3[nH]nnc3-c3cncnc3)cc12 [Compound 251, 1-(2-((2S,4R)-2-(6-bromopyridin-2-ylcarbamoyl)-4-fluoropyrrolidin-1-yl)-2-oxoethyl)-5-(4-(pyrimidin-5-yl)-1H-1,2,3-triazol-5-yl)-1H-indazole-3-carboxamide]",< 1000 nM
3,"COc1cc2c(cc1-c1cnc(C)nc1)c(C(C)=O)cn2CC(=O)N1C[C@H](F)C[C@H]1C(=O)Nc1cccc(Br)n1 [Compound 319, (2S,4R)-1-(2-(3-Acetyl-6-methoxy-5-(2-methylpyrimidin-5-yl)-1H-indol-1-yl)acetyl)-N-(6-bromopyridin-2-yl)-4-fluoropyrrolidine-2-carboxamide]",< 1000 nM
4,"CC(=O)c1nn(CC(=O)N2C[C@H](F)C[C@H]2C(=O)Nc2cccc(Br)n2)c2ccc(-c3cnc4ncccn34)cc12 [Compound 245, (2S,4R)-1-(2-(3-acetyl-5-(imidazo[1,2-a]pyrimidin-3-yl)-1H-indazol-1-yl)acetyl)-N-(6-bromopyridin-2-yl)-4-fluoropyrrolidine-2-carboxamide]",< 1000 nM
5,COc1ncc(-c2ccc3c(c2)c(C(C)=O)cn3CC(=O)N2C[C@H](Cl)C[C@H]2C(=O)Nc2cccc(-c3ccccc3Cl)c2F)cn1 [Compound 203],< 1000 nM

# Same assay, conditions: Human Factor D, Table 3; read-out: IC50
row,Structure (SMILES),IC50
1,"CC(=O)c1nn(CC(=O)N2CC[C@H]2C(=O)Nc2cccc(C)n2)c2ccc(-c3ccc(F)nc3)cc12 [Compound 549, (S)-1-(2-(3-Acetyl-5-(6-fluoropyridin-3-yl)-1H-indazol-1-yl)acetyl)-N-(6-methylpyridin-2-yl)azetidine-2-carboxamide]",> 10000 nM
2,"CC(=O)c1nn(CC(=O)N2[C@@H]3C[C@@H]3C[C@H]2C(=O)NC/C(F)=C(\C)c2ccccc2)c2ccc(-c3cnc(C)nc3)cc12 [Compound 557, (1R,3S,5R)-2-(2-(3-Acetyl-5-(2-methylpyrimidin-5-yl)-1H-indazol-1-yl)acetyl)-N—((Z)-2-fluoro-3-phenylbut-2-en-1-yl)-2-azabicyclo[3.1.0]hexane-3-carboxamide]",< 1000 nM
3,"CC(=O)c1nn(CC(=O)N2C[C@H](F)C[C@H]2C(=O)Nc2cccc(Br)n2)c2ccc(-c3cnc(COC(=O)N(C)C)nc3)cc12 [Compound 555, (5-(3-Acetyl-1-(2-((2S,4R)-2-((6-bromopyridin-2-yl)carbamoyl)-4-fluoropyrrolidin-1-yl)-2-oxoethyl)-1H-indazol-5-yl)pyrimidin-2-yl)methyl dimethylcarbamate]",< 1000 nM
4,"CC(=O)c1nn(CC(=O)N2[C@H](C(=O)N[C@H](C)C(F)=C(C)C)C[C@@]3(C)C[C@@H]23)c2ccc(-c3cnc(C)nc3)cc12 [Compound 623, (1R,3S,5R)-2-(2-(3-acetyl-5-(2-methylpyrimidin-5-yl)-1H-indazol-1-yl)acetyl)-N-((R)-3-fluoro-4-methylpent-3-en-2-yl)-5-methyl-2-azabicyclo[3.1.0] hexane-3-carboxamide]",< 1000 nM

# Same assay, conditions: Table 3; Human Factor D 80 nM, substrate Z-L-Lys-SBzl; read-out: IC50 (Stars)
row,Structure (SMILES),IC50
1,"CC(=O)c1nn(CC(=O)N2C[C@H](F)C[C@H]2C(=O)Nc2cncc(Br)n2)c2ccc(-c3cnc(C4CC4)nc3)cc12 [Compound 354, (2S,4R)-1-(2-(3-Acetyl-5-(2-cyclopropylpyrimidin-5-yl)-1H-indazol-1-yl)acetyl)-N-(6-bromopyrazin-2-yl)-4-fluoropyrrolidine-2-carboxamide]",< 1000 nM
2,"CNS(=O)(=O)c1ccc(Cl)c(-c2cccc(NC(=O)[C@@H]3C[C@@H](F)CN3C(=O)Cn3nc(C(C)=O)c4cc(-c5cnc(C)nc5)ccc43)c2F)c1 [Compound 342, (2S,4R)-1-(2-(3-Acetyl-5-(2-methylpyrimidin-5-yl)-1H-indazol-1-yl)acetyl)-N-(2′-chloro-2-fluoro-5′-(N-methylsulfamoyl)-[1,1′-biphenyl]-3-yl)-4-fluoropyrrolidine-2-carboxamide]",< 1000 nM
3,"CC(=O)c1nn(CC(=O)N2C[C@](C)(F)C[C@H]2C(=O)Nc2cccc(Br)n2)c2ccc(-c3cnc(C)nc3)cc12 [Compound 418, (2S,4R)-1-(2-(3-Acetyl-5-(2-methylpyrimidin-5-yl)-1H-indazol-1-yl)acetyl)-N-(6-bromopyridin-2-yl)-4-fluoro-4-methylpyrrolidine-2-carboxamide]",< 1000 nM
4,"CC(=O)c1nn(CC(=O)N2C[C@H](F)C[C@H]2C(=O)Nc2cccc(-c3cc(S(=O)(=O)N(C)C)ccc3Cl)c2F)c2ccc(-c3cnc(C)nc3)cc12 [Compound 343, (2S,4R)-1-(2-(3-Acetyl-5-(2-methylpyrimidin-5-yl)-1H-indazol-1-yl)acetyl)-N-(2′-chloro-5′-(N,N-dimethylsulfamoyl)-2-fluoro-[1,1′-biphenyl]-3-yl)-4-fluoropyrrolidine-2-carboxamide]",< 1000 nM
5,"CC(=O)c1nn(CC(=O)N2C[C@H](F)C[C@H]2C(=O)Nc2cccc(OC(F)(F)F)n2)c2ccc(-c3cnc(C)nc3)cc12 [Compound 344, (2S,4R)-1-(2-(3-Acetyl-5-(2-methylpyrimidin-5-yl)-1H-indazol-1-yl)acetyl)-4-fluoro-N-(6-(trifluoromethoxy)pyridin-2-yl)pyrrolidine-2-carboxamide]",< 1000 nM
6,"Cc1cccc(NC(=O)[C@@H]2[C@H]3CC[C@H](C3)N2C(=O)Cn2cc(C(N)=O)c3cc(-c4ccc5c(c4)CC5)ccc32)n1 [Compound 536, 5-(1,2-Dihydrocyclobutabenzen-4-yl)-1-(2-((1R,3S,4S)-3-(6-methylpyridin-2-ylcarbamoyl)-2-azabicyclo[2.2.1]heptan-2-yl)-2-oxoethyl)-1H-indole-3-carboxamide]",> 10000 nM
7,"Cc1cccc(NC(=O)[C@@H]2[C@H]3CC[C@H](C3)N2C(=O)Cn2cc(C(N)=O)c3cc(-c4cccc(C#N)c4)ccc32)n1 [Compound 497, 5-(3-Cyanophenyl)-1-(2-((1R,3S,4S)-3-(6-methylpyridin-2-ylcarbamoyl)-2-azabicyclo[2.2.1]heptan-2-yl)-2-oxoethyl)-1H-indole-3-carboxamide]",> 10000 nM
